In this experiment the target is Cathepsin D (Homo sapiens, UniProt P07339). The experiment can be described thus: Assay 3: cathepsin D inhibition activity (non-cellular assay, chromogenic substrate). On the set-up: Frozen human placental tissue was thawed and homogenized in 10mM Tris-HCl, pH 7.4; from tissue; host or cells: human placenta. In kind it is biochemical. The settings on record: cathepsin D from human placental tissue, pH 3.7, 37°C. The protocol: A third non-cellular assay for determining in vitro aspartyl protease inhibitory activity is generally described in Jupp, R.A. et al., (1990) Biochem. J., 265:871-878 and Rao et al., J. Med. Chem. (1993), in press. The assay is carried out by incubating a test compound with a suitable aspartyl protease, such as cathepsin D, in the presence of a chromogenic substrate. The inhibition constant, Ki, value may then be determined by quantifying the competitive inhibition of the hydrolysis of the chromogenic substrate. A variety of chromogenic substrates that are useful for assaying aspartyl protease activity are discussed in Dunn, et al., (1986) Biochem. J., 237:899-906. A preferred chromogenic substrate for a cathepsin D assay is disclosed in Scarborough, P.E. et al., Protein Science, (1993), 2:264-276.
Sequence of Cathepsin D (P07339 65-412): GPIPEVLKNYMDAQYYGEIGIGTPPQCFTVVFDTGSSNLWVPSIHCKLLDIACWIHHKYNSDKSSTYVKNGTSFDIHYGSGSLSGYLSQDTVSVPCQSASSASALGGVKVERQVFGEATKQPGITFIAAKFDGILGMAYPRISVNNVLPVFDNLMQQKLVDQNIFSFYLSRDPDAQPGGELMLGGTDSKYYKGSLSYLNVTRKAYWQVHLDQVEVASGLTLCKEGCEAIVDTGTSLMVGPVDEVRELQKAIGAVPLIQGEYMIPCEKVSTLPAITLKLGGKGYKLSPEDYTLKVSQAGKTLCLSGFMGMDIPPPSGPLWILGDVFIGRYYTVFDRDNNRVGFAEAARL
Concentrations of substrate solutions and cleavage products may be verified using amino acid analysis. The enzyme preparations may be titrated with a tightly binding inhibitor to quantitate the active concentration of the enzyme. Enzyme concentrations are typically in the range of from 1-6 nM. […]
A decrease in absorbance in the range of 284-324 nm may be monitored using a spectrophotometer. Absorbance readings are typically taken at various timepoints. […] Estimates of Ki may then be determined using the Dixon construction. […]

This is an account of results in patent EP0652009A1, “Identification and use of protease inhibitors” (ELI LILLY AND COMPANY, priority 1993, dated 1995).

Non-standard residues stand in square brackets, D forms with d. Residues, ends and D or L forms follow the SMILES beside them. 2Nal = N[C@@H](Cc1ccc2ccccc2c1)C(=O)O; Sta = CC(C)C[C@H](N)[C@@H](O)CC(=O)O

`CC(=O)N[C@@H](Cc1ccc2ccccc2c1)C(=O)N[C@H](C(=O)N[C@@H](CC(C)C)[C@@H](O)CC(=O)N[C@@H](CC(C)C)C(=O)N[C@@H](Cc1ccc2ccccc2c1)C(N)=O)C(C)C` [Example 36, Acetyl-β-naphthylalanine-valine-statine-leucine-β-naphthylalanine-amide] (Ac-[2Nal]V[Sta]L[2Nal]-NH2) came in with a Ki of 0.39 ± 0.04 nM.
